Experimental data from patent US8772316B2, “Substituted 6,7-dialkoxy-3-isoquinolinol derivatives as inhibitors of phosphodiesterase 10 (PDE10A)” (Allergan, Inc., priority 2011, dated 2014).
Where a name gives a salt, the structure may show the parent alone.

target: PDE10A; assay: Phosphodiesterase assay (TR-FRET, LANCE cAMP kit); format: biochemical; conditions: PDE10A (BPS Bioscience) 200 pg/well, biotin-cAMP substrate, 60 min at room temperature
Method: (§1) The PDE assay is based on the homogenous time-resolved fluorescence resonance energy transfer (TR-FRET) technology (LANCE® from Perkin Elmer). […] When there is PDE activity, resulting in the degradation of the cyclic nucleotide, the complex is not formed and a decrease in signal is observed.
(§2) The phosphodiesterase assay was developed using the LANCE® cAMP kit (PerkinElmer). The assay buffer contained HBSS with 5 mM HEPES, 0.1% BSA, and 1.5 mM MgCl2, pH 7.4. PDE10A (BPS Bioscience) was used at 200 pg/well (with a specific activity of 3200 pmole/min/μg with assay conditions: 10 mM Tris-HCl, pH7.4, 10 mM MgCl2, 1 mM MnCl2, 200 μM cAMP, 2.5 kU 5′ nucleotidase, 37° C., 20 min). […] Chemical compounds were dissolved in DMSO (final concentration 2% (v/v)).
(§3) In a 384-well plate, 2 μL inhibitor and 3 μL PDE were added to the well, followed by the addition of 5 μl substrate biotinylated cAMP (1:5). After 60 min incubation at room temperature, 10 μL of assay detection mixture was added to the assay plate. After 1 h at room temperature, the signal was measured on EnVision™ (Perkin Elmer).

First: CCCc1nc(O)c(Cc2cc3cc4c(cc3nc2N(C)C)OCO4)c2cc(OC)c(OC)cc12 [Compound 63, 4-((6-(dimethylamino)-[1,3]dioxolo[4,5-g]quinolin-7-yl)methyl)-6,7-dimethoxy-1-propylisoquinolin-3-ol dihydrochloride]
Second: CCCc1nc(O)c(Cc2cc3cc(OC)c(F)cc3nc2NCC)c2cc(OC)c(OC)cc12 [Compound 70, 4-((2-(Ethylamino)-7-fluoro-6-methoxyquinolin-3-yl)methyl)-6,7-dimethoxy-1-propylisoquinolin-3-ol dihydrochloride]
The IC50 of the first is 230-fold higher: 560 nM for the first, 2.4 nM for the second.

Going from CCCc1nc(N)c(Cc2ccc3oc4ccccc4c3c2)c2cc(OC)c(OC)cc12 [Compound 65, 4-(dibenzo[b,d]furan-2-ylmethyl)-6,7-dimethoxy-1-propylisoquinolin-3-amine hydrochloride] to CCCc1nc(O)c(Cc2cnc3ccccc3c2)c2cc(OC)c(OC)cc12 [Compound 74, 6,7-dimethoxy-1-propyl-4-(quinolin-3-ylmethyl)isoquinolin-3-ol hydrochloride], the IC50 falls from 967 nM to 6.1 nM (160-fold). The second is the more potent here.

Going from CCCc1nc(O)c(Cc2cc3cc(OC)ccc3nc2CC)c2cc(OC)c(OC)cc12 [Compound 66, 4-((2-ethyl-6-methoxyquinolin-3-yl)methyl)-6,7-dimethoxy-1-propylisoquinolin-3-ol dihydrochloride] to CCCCc1nc2ccc(OC)cc2cc1Cc1c(O)nc(CCC)c2cc(OC)c(OC)cc12 [Compound 71, 4-((2-Butyl-6-methoxyquinolin-3-yl)methyl)-6,7-dimethoxy-1-propylisoquinolin-3-ol dihydrochloride], the IC50 rises from 16 nM to 93 nM (5.8-fold). The first is the more potent here.

CCNc1nc2ccc(OC)cc2cc1Cc1c(O)nc(COC)c2cc(OC)c(OC)cc12 [Compound 67, 4-((2-(ethylamino)-6-methoxyquinolin-3-yl)methyl)-6,7-dimethoxy-1-(methoxymethyl)isoquinolin-3-ol dihydrochloride] and CCCc1nc(O)c(Cc2cc3cc(OC)ccc3nc2NCCOC)c2cc(OC)c(OC)cc12 [Compound 76, 6,7-dimethoxy-4-((6-methoxy-2-(2-methoxyethylamino)quinolin-3-yl)methyl)-1-propylisoquinolin-3-ol dihydrochloride] are within 1.5-fold of each other in IC50: 1.8 nM for the first, 2.3 nM for the second.

First: CCc1nc(O)c(Cc2cc3cc(OC)ccc3nc2N=[N+]=[N-])c2cc(OC)c(OC)cc12 [Compound 68, 4-((2-Azido-6-methoxyquinolin-3-yl)methyl)-1-ethyl-6,7-dimethoxyisoquinolin-3-ol dihydrochloride]
Second: CCc1nc(O)c(Cc2cnc3ccc(OC)cc3c2)c2cc(OC)c(OC)cc12 [Compound 85, 1-ethyl-6,7-dimethoxy-4-((6-methoxyquinolin-3-yl)methyl)isoquinolin-3-ol dihydrochloride]
The IC50 of the first is 500-fold higher: 200 nM for the first, 0.4 nM for the second. The second is the more potent here.

Going from CCc1nc(O)c(Cc2cc3cc(OC)ccc3nc2NCCNC(C)=O)c2cc(OC)c(OC)cc12 [Compound 69, N-(2-(3-((1-Ethyl-3-hydroxy-6,7-dimethoxyisoquinolin-4-yl)methyl)-6-methoxyquinolin-2-ylamino)ethyl)acetamide dihydrochloride] to COc1ccc2nc(NCCNC(C)=O)c(Cc3c(O)nc(C)c4cc(OC)c(OC)cc34)cc2c1 [Compound 73, N-(2-(3-((3-hydroxy-6,7-dimethoxy-1-methylisoquinolin-4-yl)methyl)-6-methoxyquinolin-2-ylamino)ethyl)acetamide dihydrochloride], the IC50 rises from 1.5 nM to 2.7 nM (1.8-fold).

First: CCCc1nc(O)c(Cc2cc3cc(OC)ccc3nc2C(F)(F)F)c2cc(OC)c(OC)cc12 [Compound 72, 6,7-Dimethoxy-4-((6-methoxy-2-(trifluoromethyl)quinolin-3-yl)methyl)-1-propylisoquinolin-3-ol hydrochloride]
Second: CCCc1nc(O)c(Cc2cnc3ccc(OC)cc3c2)c2cc(OC)c(OC)cc12 [Compound 84, 6,7-Dimethoxy-4-((6-methoxyquinolin-3-yl)methyl)-1-propylisoquinolin-3-ol dihydrochloride]
The IC50 of the first is 280-fold higher: 445 nM for the first, 1.6 nM for the second.

Compared with CCNc1nc2ccc(OC)cc2cc1C(=O)c1c(O)nc(C)c2cc(OC)c(OC)cc12 [Compound 75, (2-(ethylamino)-6-methoxyquinolin-3-yl)(3-hydroxy-6,7-dimethoxy-1-methylisoquinolin-4-yl)methanone dihydrochloride], CCNc1nc2cc(F)c(OC)cc2cc1Cc1c(O)nc(CC)c2cc(OC)c(OC)cc12 [Compound 82, 1-Ethyl-4-((2-(ethylamino)-7-fluoro-6-methoxyquinolin-3-yl)methyl)-6,7-dimethoxyisoquinolin-3-ol dihydrochloride] is lower in IC50: greater than 1000 nM for the first, 1.4 nM for the second.

Going from CCc1nc(O)c(Cc2cnc3ccccc3c2)c2cc(OC)c(OC)cc12 [Compound 78, 1-ethyl-6,7-dimethoxy-4-(quinolin-3-ylmethyl)isoquinolin-3-ol dihydrochloride] to CCc1nc(O)c(Cc2ccc3nc(C)ccc3c2)c2cc(OC)c(OC)cc12 [Compound 81, 1-Ethyl-6,7-dimethoxy-4-((2-methylquinolin-6-yl)methyl)isoquinolin-3-ol dihydrochloride], the IC50 falls from 27 nM to 7.5 nM (3.6-fold).

Compared with CCCc1nc(O)c(Cc2cc3cc(OCC4CC4)ccc3nc2NCCNC(C)=O)c2cc(OC)c(OC)cc12 [Compound 83, N-(2-(6-(cyclopropylmethoxy)-3-((3-hydroxy-6,7-dimethoxy-1-propylisoquinolin-4-yl)methyl)quinolin-2-ylamino)ethyl)acetamide dihydrochloride], CCc1nc(O)c(Cc2cc3cc(OCC4CC4)ccc3nc2NCCNC(C)=O)c2cc(OC)c(OC)cc12 [Compound 87, N-(2-((6-(cyclopropylmethoxy)-3-((1-ethyl-3-hydroxy-6,7-dimethoxyisoquinolin-4-yl)methyl)quinolin-2-yl)amino)ethyl)acetamide dihydrochloride] is 2.6-fold lower in IC50: 10 nM for the first, 3.9 nM for the second. The second is the more potent here.

target: PDE10A (Homo sapiens, UniProt Q9Y233); assay: Phosphodiesterase assay (TR-FRET, LANCE cAMP kit); format: biochemical; conditions: PDE10A (BPS Bioscience) 200 pg/well, biotin-cAMP substrate, 60 min at room temperature
Method: as §1, §2, §3

Chain of PDE10A (Homo sapiens, UniProt Q9Y233) (Q9Y233 whole entry, looked up): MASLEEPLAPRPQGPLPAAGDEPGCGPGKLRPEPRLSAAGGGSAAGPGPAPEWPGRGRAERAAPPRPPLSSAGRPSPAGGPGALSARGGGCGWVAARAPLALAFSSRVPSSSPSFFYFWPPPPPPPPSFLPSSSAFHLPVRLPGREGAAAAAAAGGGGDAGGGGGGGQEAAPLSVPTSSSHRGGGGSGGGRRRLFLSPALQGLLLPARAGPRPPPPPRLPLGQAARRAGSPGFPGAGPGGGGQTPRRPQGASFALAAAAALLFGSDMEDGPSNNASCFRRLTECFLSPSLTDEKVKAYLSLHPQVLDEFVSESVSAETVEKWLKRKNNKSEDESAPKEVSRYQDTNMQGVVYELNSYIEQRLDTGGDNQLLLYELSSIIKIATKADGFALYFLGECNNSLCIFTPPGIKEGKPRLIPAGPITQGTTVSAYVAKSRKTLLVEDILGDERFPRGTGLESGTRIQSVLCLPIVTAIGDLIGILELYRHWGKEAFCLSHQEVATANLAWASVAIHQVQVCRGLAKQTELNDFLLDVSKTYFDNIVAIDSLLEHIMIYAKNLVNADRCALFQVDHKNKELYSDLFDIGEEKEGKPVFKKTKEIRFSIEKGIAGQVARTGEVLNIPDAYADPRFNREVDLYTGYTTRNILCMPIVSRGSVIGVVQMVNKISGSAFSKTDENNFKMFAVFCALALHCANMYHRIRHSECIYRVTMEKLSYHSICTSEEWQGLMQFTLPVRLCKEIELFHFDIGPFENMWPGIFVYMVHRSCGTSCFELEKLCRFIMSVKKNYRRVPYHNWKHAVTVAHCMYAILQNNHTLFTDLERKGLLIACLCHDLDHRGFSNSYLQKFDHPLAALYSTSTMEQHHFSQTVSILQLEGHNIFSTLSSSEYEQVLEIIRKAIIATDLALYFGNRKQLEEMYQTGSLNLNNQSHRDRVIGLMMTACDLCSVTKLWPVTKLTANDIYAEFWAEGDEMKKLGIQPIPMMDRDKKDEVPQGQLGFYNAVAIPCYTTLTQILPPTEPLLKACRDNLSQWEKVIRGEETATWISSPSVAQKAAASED

In order of falling IC50:
1. CCCc1nc(O)c(Cc2cc3cc(C)ccc3nc2N(C)C)c2cc(OC)c(OC)cc12 [Compound 36, 4-((2-(Dimethylamino)-6-methylquinolin-3-yl)methyl)-6,7-dimethoxy-1-propylisoquinolin-3-ol dihydrochloride]  698 nM
2. COc1cc2c(C)nc(O)c(Cc3ccc4cnccc4c3)c2cc1OC [Compound 21, 4-(Isoquinolin-6-ylmethyl)-6,7-dimethoxy-1-methylisoquinolin-3-ol dihydrochloride]  333 nM
3. COc1cc2c(C)nc(O)c(Cc3cccc4cnccc34)c2cc1OC [Compound 22, 4-(Isoquinolin-5-ylmethyl)-6,7-dimethoxy-1-methylisoquinolin-3-ol dihydrochloride]  333 nM
4. COc1cc2c(C)nc(O)c(Cc3ccnc4ccccc34)c2cc1OC [Compound 25, 6,7-Dimethoxy-1-methyl-4-(quinolin-4-ylmethyl)isoquinolin-3-ol dihydrochloride]  265 nM
5. COc1cc2c(C)nc(O)c(Cc3ccncc3)c2cc1OC [Compound 11, 6,7-dimethoxy-1-methyl-4-(pyridin-4-ylmethyl)isoquinolin-3-ol hydrochloride]  223 nM
6. COc1cc2c(C)nc(O)c(Cc3cccc(Oc4ccccc4)c3)c2cc1OC [Compound 4, 6,7-dimethoxy-1-methyl-4-(3-phenoxybenzyl)isoquinolin-3-ol hydrochloride]  140 nM
7. COc1cc2c(C)nc(O)c(Cc3cncc(-c4ccccc4)c3)c2cc1OC [Compound 15, 6,7-Dimethoxy-1-methyl-4-((5-phenylpyridin-3-yl)methyl)isoquinolin-3-ol dihydrochloride]  97 nM
8. COc1ccc(-c2cccc(Cc3c(O)nc(C)c4cc(OC)c(OC)cc34)n2)cc1 [Compound 13, 6,7-dimethoxy-4-((6-(4-methoxyphenyl)pyridin-2-yl)methyl)-1-methylisoquinolin-3-ol dihydrochloride]  50 nM
9. COc1ccc2cc(Cc3c(O)nc(C)c4cc(OC)c(OC)cc34)cnc2c1 [Compound 29, 6,7-Dimethoxy-4-((7-methoxyquinolin-3-yl)methyl)-1-methylisoquinolin-3-ol dihydrochloride]  29 nM
10. CCOc1ccc2cc(Cc3c(O)nc(C)c4cc(OC)c(OC)cc34)cnc2c1 [Compound 30, 4-((7-ethoxyquinolin-3-yl)methyl)-6,7-dimethoxy-1-methylisoquinolin-3-ol dihydrochloride]  21 nM
11. CCc1nc(O)c(Cc2ccc3ccccc3c2)c2cc(OC)c(OC)cc12 [Compound 19, 1-ethyl-6,7-dimethoxy-4-(naphthalen-2-ylmethyl)isoquinolin-3-ol hydrochloride]  11 nM
12. CCc1nc(O)c(Cc2cc3cc(OC)ccc3nc2NC(C)C)c2cc(OC)c(OC)cc12 [Compound 43, 1-Ethyl-4-((2-(isopropylamino)-6-methoxyquinolin-3-yl)methyl)-6,7-dimethoxyisoquinolin-3-ol dihydrochloride]  3.5 nM
13. CCCNc1nc2ccc(OC)cc2cc1Cc1c(O)nc(C)c2cc(OC)c(OC)cc12 [Compound 38, 6,7-dimethoxy-4-((6-methoxy-2-(propylamino)quinolin-3-yl)methyl)-1-methylisoquinolin-3-ol dihydrochloride]  2.7 nM
14. CCCc1nc(O)c(Cc2cc3cc(C)ccc3nc2NCC)c2cc(OC)c(OC)cc12 [Compound 35, 4-((2-(Ethylamino)-6-methylquinolin-3-yl)methyl)-6,7-dimethoxy-1-propylisoquinolin-3-ol dihydrochloride]  1.5 nM
